One test addresses EPHA2 (Homo sapiens, UniProt P29317). The test can be described thus: Caliper kinase profiling: EPHA2. The class given is biochemical. The following applies: EPHA2, 1 μM; read-out: Average % Inh @ 1 μM.
The next test concerns the target T1, MST1 (Homo sapiens, UniProt Q13043).
T1 sequence (Q13043 1-487): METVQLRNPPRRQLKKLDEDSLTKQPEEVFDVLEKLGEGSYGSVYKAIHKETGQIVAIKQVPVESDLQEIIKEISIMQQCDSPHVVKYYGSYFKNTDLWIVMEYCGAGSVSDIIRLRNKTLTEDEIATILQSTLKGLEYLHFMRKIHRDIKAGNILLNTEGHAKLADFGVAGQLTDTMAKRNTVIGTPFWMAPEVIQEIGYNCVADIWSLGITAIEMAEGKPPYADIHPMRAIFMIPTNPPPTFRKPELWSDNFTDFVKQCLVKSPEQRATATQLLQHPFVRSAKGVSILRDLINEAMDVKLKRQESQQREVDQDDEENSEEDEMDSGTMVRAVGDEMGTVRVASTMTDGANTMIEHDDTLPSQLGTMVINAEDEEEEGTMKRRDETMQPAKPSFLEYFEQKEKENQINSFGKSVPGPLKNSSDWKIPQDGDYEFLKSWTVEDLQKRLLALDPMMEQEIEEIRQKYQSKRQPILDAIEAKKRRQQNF
The test can be described thus: Caliper kinase profiling: MST1. In kind it is biochemical.

The target of another test is T2, EPHA1 (Homo sapiens, UniProt P21709).
T2 sequence (P21709 26-976): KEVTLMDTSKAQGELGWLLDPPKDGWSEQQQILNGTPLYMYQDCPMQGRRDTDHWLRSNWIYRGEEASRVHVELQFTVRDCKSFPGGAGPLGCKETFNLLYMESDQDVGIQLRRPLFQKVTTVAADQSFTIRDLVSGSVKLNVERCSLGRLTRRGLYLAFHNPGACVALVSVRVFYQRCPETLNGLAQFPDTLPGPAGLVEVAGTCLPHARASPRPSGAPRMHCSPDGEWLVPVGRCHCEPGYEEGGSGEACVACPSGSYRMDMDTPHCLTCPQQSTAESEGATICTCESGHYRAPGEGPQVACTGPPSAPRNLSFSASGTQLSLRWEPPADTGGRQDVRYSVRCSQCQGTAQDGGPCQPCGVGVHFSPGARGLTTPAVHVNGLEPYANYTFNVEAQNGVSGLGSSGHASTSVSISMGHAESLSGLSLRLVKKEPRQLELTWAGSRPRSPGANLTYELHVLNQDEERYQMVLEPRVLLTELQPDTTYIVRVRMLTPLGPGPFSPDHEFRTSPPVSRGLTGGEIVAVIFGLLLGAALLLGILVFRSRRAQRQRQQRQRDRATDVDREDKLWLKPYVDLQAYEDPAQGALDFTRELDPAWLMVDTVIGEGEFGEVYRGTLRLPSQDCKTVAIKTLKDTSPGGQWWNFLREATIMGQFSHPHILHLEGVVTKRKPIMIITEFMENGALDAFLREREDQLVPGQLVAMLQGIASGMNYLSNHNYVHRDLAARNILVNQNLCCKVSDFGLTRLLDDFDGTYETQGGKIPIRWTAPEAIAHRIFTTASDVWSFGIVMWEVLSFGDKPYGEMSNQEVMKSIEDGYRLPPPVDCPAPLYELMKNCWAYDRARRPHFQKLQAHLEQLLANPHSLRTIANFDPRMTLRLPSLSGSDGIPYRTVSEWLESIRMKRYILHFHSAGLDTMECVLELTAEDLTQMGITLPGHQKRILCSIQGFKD
The test can be described thus: Caliper kinase profiling: EPHA1. In kind it is biochemical.

Another test has as its target T3, BLK (Homo sapiens, UniProt P51451).
T3 construct: purchased Caliper LifeSciences (ProfilerPro Kinase Selectivity Assay Kits)
The test can be described thus: Caliper kinase profiling: BLK. In kind it is biochemical.

The next test concerns the target T4, MST2 (Homo sapiens, UniProt Q13188).
T4 sequence (Q13188 1-491): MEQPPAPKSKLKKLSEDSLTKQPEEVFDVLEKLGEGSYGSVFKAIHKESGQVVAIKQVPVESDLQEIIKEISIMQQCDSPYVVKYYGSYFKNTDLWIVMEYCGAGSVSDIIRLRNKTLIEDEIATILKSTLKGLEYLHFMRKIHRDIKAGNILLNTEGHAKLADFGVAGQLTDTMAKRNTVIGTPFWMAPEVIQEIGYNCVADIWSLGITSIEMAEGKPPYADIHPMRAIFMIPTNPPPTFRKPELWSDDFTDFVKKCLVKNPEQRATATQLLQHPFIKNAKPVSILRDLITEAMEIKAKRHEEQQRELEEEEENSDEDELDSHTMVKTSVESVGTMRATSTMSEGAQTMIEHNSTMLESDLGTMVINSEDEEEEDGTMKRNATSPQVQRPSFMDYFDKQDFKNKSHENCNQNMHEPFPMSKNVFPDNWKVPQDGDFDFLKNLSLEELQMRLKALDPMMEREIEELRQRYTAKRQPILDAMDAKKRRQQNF
The test can be described thus: Caliper kinase profiling: MST2. In kind it is biochemical.

A further test addresses T5, ALK (Homo sapiens, UniProt Q9UM73).
T5 construct: purchased Caliper LifeSciences (ProfilerPro Kinase Selectivity Assay Kits)
Briefly: Caliper kinase profiling: ALK. In kind it is biochemical.

In another test the target is FGFR2 (Homo sapiens, UniProt P21802). Briefly: Caliper kinase profiling: FGFR2. The class given is biochemical.
Another test deals with LYNB (Homo sapiens, UniProt P07948). The test can be described thus: Caliper kinase profiling: LYNB. The class given is biochemical.
For the next test, the target named is FRK (Homo sapiens, UniProt P42685). Briefly: Caliper kinase profiling: FRK. In kind it is biochemical. Conditions: read-out: Average % Inh @ 1 μM.
The subject of the next test is ASPC-1. Briefly: Cell viability: pancreatic cancer cell line ASPC-1. The class given is cell-based. Conditions: Homo sapiens, ASPC1; ASPC-1 pancreatic cancer cell line. On the procedure: This assay quantitates the ATP present in order to determine the number of viable cells in culture. Briefly, the compounds were incubated with the cells for 72 h, followed by cell lysis. The resulting luminescent signal is proportional to the amount of ATP present and, therefore, directly proportional to the number of cells present in culture.
Analogous studies utilizing pancreatic cancer cell lines such as ASPC-1 and PANC-1 can be performed with compounds of the invention.

Setting [1] is: 10 nM, read-out: Average % Inh @ 10 nM.
The mark [2] stands for this setting: 100 nM, read-out: Average % Inh @ 100 nM.
[3] abbreviates: 1 μM, read-out: Average % Inh @ 1 μM.

The IC50 is the concentration that gives 50% inhibition. Low readings indicate greater potency, high ones weaker potency.

Sequence of LYNB (P07948 1-491 isoform P07948-2): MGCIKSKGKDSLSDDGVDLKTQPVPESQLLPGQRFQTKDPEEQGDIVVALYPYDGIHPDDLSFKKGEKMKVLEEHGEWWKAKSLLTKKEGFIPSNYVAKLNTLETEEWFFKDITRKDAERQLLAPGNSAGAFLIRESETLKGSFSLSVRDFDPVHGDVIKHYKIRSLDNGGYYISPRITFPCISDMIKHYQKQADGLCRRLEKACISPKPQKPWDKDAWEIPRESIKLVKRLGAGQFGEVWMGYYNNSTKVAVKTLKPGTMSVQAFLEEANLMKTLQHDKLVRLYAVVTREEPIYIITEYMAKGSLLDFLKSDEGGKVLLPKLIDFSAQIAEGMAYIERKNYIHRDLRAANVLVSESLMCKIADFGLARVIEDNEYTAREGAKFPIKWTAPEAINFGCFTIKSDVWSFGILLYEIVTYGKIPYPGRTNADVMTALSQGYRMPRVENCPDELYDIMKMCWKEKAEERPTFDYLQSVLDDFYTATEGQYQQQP
T5 sequence (Q9UM73 19-1620): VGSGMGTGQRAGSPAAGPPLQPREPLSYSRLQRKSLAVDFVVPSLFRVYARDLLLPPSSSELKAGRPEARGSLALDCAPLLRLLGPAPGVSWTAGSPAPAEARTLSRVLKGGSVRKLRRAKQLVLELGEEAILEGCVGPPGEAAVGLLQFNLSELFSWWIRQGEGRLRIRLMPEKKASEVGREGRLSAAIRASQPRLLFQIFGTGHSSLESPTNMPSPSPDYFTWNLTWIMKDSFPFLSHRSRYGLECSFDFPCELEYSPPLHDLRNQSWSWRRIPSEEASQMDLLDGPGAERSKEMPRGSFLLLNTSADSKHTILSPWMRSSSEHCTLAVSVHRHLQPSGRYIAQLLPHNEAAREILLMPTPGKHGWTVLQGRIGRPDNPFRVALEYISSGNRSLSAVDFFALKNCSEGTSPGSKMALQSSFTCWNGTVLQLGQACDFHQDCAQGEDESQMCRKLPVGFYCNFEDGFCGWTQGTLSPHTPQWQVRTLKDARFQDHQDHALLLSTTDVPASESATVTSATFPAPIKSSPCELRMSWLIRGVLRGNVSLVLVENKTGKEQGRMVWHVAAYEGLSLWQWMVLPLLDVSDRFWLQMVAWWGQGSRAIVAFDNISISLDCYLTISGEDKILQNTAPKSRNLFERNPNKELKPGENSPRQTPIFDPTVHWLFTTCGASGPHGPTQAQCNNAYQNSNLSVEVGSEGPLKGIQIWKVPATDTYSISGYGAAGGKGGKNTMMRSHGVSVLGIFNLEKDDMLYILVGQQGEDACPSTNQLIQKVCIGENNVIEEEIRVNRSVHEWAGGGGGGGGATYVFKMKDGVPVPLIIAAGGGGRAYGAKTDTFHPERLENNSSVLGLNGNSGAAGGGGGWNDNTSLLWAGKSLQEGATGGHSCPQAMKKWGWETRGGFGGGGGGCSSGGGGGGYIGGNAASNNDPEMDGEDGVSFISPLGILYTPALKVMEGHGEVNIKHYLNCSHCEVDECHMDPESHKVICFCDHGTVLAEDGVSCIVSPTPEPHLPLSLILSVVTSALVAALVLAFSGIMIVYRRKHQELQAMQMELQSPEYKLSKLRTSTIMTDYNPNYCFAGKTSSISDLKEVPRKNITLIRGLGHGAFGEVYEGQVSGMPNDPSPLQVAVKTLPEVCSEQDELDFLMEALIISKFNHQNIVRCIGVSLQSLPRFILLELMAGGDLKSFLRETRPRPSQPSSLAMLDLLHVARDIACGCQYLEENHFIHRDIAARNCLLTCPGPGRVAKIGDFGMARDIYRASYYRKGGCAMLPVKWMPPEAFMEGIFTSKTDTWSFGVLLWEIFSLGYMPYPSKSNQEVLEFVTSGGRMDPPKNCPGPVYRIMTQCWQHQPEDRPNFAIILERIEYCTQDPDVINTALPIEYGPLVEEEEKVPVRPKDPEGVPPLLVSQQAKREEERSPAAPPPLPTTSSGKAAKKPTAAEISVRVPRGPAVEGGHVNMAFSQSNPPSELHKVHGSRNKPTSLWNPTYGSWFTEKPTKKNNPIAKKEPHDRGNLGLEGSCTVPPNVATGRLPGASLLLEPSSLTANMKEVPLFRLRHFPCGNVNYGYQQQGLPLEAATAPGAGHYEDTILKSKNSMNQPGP
T3 sequence (P51451 whole entry): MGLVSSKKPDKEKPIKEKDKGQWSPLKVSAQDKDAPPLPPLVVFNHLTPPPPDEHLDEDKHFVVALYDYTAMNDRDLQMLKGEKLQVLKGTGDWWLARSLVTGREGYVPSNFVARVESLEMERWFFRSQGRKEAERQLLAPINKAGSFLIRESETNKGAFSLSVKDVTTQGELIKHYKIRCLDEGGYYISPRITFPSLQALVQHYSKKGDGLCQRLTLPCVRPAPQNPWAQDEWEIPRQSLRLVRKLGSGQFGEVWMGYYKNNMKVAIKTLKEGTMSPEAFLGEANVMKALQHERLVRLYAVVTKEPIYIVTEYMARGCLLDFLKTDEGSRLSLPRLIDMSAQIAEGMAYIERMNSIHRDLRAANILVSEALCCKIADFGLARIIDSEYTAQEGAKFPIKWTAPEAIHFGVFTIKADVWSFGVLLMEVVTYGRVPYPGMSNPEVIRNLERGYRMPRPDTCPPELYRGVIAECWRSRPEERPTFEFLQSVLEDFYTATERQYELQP
Sequence of FGFR2 (P21802 22-821): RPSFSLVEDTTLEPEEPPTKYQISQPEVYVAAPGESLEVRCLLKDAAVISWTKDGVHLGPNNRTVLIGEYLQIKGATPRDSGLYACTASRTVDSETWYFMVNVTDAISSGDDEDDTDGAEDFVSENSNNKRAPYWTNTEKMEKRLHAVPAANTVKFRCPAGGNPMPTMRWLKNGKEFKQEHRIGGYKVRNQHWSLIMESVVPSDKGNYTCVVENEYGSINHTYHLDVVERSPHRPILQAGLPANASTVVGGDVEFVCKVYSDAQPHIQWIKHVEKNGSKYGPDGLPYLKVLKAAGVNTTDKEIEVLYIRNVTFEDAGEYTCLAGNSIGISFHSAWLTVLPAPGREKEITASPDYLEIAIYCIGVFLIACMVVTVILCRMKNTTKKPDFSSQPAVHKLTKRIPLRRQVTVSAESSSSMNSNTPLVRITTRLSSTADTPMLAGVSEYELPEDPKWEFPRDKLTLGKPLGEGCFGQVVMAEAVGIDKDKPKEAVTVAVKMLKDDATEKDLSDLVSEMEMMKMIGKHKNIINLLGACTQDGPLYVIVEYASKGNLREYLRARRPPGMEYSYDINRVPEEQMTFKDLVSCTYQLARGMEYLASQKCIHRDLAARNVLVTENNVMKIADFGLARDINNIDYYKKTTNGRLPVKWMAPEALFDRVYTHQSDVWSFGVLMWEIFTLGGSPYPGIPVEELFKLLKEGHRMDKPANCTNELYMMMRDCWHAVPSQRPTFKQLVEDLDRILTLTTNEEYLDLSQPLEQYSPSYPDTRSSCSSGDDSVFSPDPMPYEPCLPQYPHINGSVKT
Sequence of FRK (P42685 whole entry): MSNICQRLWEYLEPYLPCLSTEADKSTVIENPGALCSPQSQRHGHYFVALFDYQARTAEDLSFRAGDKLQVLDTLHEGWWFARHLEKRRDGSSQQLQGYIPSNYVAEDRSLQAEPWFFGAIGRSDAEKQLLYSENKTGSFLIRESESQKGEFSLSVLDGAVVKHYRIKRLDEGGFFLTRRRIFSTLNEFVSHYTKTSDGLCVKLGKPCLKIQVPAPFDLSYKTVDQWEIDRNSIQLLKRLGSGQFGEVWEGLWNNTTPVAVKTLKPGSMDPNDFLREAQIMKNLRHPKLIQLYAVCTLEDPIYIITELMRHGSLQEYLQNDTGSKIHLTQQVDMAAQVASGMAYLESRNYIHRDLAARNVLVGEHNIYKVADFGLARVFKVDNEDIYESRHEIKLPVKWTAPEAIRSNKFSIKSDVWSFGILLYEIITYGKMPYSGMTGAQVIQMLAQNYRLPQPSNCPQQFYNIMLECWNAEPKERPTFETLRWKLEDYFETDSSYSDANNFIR
Sequence of EPHA2 (P29317 24-976): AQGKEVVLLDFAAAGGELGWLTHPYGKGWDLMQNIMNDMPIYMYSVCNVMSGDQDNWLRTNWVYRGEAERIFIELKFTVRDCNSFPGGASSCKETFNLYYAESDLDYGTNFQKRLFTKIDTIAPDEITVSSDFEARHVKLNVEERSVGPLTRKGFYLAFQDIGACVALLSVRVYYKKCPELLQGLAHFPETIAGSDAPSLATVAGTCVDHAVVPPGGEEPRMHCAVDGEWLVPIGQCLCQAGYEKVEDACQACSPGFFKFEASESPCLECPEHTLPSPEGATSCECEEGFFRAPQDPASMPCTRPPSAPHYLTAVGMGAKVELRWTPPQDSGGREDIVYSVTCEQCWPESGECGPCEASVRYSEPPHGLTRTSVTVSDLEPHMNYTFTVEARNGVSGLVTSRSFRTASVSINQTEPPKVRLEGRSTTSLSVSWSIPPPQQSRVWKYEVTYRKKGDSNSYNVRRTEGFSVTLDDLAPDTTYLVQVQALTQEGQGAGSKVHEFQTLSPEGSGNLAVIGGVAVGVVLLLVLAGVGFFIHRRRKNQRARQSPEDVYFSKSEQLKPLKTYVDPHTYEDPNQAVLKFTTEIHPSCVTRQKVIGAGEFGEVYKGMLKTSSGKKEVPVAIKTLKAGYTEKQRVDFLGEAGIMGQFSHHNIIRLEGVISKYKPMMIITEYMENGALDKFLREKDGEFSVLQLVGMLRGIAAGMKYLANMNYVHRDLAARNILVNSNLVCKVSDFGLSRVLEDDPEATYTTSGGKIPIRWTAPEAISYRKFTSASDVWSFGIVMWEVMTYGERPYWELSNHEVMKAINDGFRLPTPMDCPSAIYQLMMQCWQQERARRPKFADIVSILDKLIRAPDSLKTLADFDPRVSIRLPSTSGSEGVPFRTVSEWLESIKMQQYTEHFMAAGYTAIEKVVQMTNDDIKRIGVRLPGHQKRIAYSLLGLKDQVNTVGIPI

In the case of `O=C(Nc1ccc(F)nc1)C1CCCN1c1nc2c(c(Nc3cc(C4CC4)[nH]n3)n1)CCC2` (single isomer, unassigned) [Compound 2b, 1-(4-(5-cyclopropyl-1H-pyrazol-3-ylamino)-6,7-dihydro-5H-cyclopenta[d]pyrimidin-2-yl)-N-(6-fluoropyridin-3-yl)pyrrolidine-2-carboxamide], the inhibition at 1 µM is more than 60% at EPHA2; more than 60% at MST1 (MST1, 1 μM, read-out: Average % Inh @ 1 μM); more than 60% on EPHA1 (EPHA1, 1 μM, read-out: Average % Inh @ 1 μM); more than 60% on BLK (setting [3]); more than 60% at MST2 (MST2, 1 μM, read-out: Average % Inh @ 1 μM); more than 60% at ALK (setting [3]). Moreover, the inhibition at 1 µM is more than 60% at FGFR2 (FGFR2, 1 μM, read-out: Average % Inh @ 1 μM); more than 60% on LYNB (setting [3]); more than 60% at FRK. For the same molecule, the inhibition at 0.01 µM on MST1 (MST1, 10 nM, read-out: Average % Inh @ 10 nM) was less than 39%; on EPHA1 (EPHA1, 10 nM, read-out: Average % Inh @ 10 nM) it was less than 39%; on BLK (setting [1]), less than 39%; on MST2 (MST2, 10 nM, read-out: Average % Inh @ 10 nM), less than 39%; on ALK (setting [1]) it was less than 39%; on FGFR2 (FGFR2, 10 nM, read-out: Average % Inh @ 10 nM) it was less than 39%. In addition, the inhibition at 0.01 µM on LYNB (setting [1]) is less than 39%. Moreover, the inhibition at 0.1 µM on MST1 (MST1, 100 nM, read-out: Average % Inh @ 100 nM) was 40 to 59%; on EPHA1 (EPHA1, 100 nM, read-out: Average % Inh @ 100 nM) it was 40 to 59%; on BLK (setting [2]) it was less than 39%; at MST2 (MST2, 100 nM, read-out: Average % Inh @ 100 nM) it was less than 39%; on ALK (setting [2]), less than 39%; on FGFR2 (FGFR2, 100 nM, read-out: Average % Inh @ 100 nM), less than 39%. Moreover, the inhibition at 0.1 µM at LYNB (setting [2]) was 40 to 59%.

On to `CC(C)c1cc(Nc2nc(N3CCCC3C(=O)Nc3ccc(F)nc3)nc3c2CCC3)n[nH]1` (single isomer, unassigned) [Compound 8b], for which the IC50 with ASPC-1 amounted to 195 nM.

These data come from patent publication US9422267B2, “Fused pyrimidine compounds and use thereof” (Medivation Technologies, Inc., priority 2012, dated 2016).
